pIC50: −log10 of the molar value. Bounds are passed on as bounds.

Experiment [1] concerns the target cAMP-dependent protein kinase (PKA) (Homo sapiens, UniProt P22694+P17612+P22612). Briefly: Inhibition of cAMP-dependent protein kinase (PKA). The class given is protein assay.
Experiment [2] has as its target T1, Protein kinase C epsilon type (Homo sapiens, UniProt Q02156).
T1 sequence (Q02156 whole entry): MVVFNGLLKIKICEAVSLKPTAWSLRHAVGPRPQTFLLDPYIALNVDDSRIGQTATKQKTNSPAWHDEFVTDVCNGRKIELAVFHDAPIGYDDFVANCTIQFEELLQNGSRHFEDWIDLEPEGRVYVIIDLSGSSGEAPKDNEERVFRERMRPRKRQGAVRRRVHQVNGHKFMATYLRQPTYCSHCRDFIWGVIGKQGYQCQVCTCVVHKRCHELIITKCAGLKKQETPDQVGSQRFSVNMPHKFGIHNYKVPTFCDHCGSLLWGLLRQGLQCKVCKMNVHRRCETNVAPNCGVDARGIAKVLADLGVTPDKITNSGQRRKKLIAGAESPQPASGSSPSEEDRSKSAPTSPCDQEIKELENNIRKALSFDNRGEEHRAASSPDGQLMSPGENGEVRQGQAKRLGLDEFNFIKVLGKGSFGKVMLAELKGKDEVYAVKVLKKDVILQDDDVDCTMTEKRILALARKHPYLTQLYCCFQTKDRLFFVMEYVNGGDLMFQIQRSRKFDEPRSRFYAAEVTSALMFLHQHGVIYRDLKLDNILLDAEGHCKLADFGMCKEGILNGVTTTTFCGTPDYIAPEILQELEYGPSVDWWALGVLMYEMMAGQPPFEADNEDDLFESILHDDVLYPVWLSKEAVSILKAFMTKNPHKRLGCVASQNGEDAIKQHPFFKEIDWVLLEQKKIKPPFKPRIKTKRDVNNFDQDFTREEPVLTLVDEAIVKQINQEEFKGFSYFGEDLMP
Description: Inhibition of protein kinase C epsilon.

For experiment [3], the target named is T2, Protein kinase C eta type (Homo sapiens, UniProt P24723). Briefly: Inhibition of protein kinase C eta.
In experiment [4] the target is T3, Protein kinase C gamma type (Homo sapiens, UniProt P05129). Briefly: Inhibition of protein kinase C gamma.
Experiment [5] addresses T4, Protein kinase C beta type (Homo sapiens, UniProt P05771). Description: Inhibition of protein kinase C beta 1.
Experiment [6] concerns the target T4, Protein kinase C beta type. Description: Inhibition of protein kinase C beta II.
In experiment [7] the target is T5, Protein kinase C delta type (Homo sapiens, UniProt Q05655). Briefly: Inhibition of protein kinase C delta.
Experiment [8] deals with Protein kinase C alpha type (Homo sapiens, UniProt P17252). Description: Inhibition of protein kinase C alpha.
For experiment [9], the target named is T4, Protein kinase C beta type. Description: Inhibition of Protein kinase C beta 2.
Experiment [10] has as its target T5, Protein kinase C delta type. Description: Inhibition of Protein kinase C delta.
Experiment [11] concerns the target T3, Protein kinase C gamma type. Briefly: Inhibition of Protein kinase C gamma.
Experiment [12] has as its target T2, Protein kinase C eta type. Briefly: Inhibition of Protein kinase C eta.
In experiment [13] the target is T4, Protein kinase C beta type. Briefly: Inhibition of Protein kinase C beta 1.

T5 sequence (Q05655 whole entry): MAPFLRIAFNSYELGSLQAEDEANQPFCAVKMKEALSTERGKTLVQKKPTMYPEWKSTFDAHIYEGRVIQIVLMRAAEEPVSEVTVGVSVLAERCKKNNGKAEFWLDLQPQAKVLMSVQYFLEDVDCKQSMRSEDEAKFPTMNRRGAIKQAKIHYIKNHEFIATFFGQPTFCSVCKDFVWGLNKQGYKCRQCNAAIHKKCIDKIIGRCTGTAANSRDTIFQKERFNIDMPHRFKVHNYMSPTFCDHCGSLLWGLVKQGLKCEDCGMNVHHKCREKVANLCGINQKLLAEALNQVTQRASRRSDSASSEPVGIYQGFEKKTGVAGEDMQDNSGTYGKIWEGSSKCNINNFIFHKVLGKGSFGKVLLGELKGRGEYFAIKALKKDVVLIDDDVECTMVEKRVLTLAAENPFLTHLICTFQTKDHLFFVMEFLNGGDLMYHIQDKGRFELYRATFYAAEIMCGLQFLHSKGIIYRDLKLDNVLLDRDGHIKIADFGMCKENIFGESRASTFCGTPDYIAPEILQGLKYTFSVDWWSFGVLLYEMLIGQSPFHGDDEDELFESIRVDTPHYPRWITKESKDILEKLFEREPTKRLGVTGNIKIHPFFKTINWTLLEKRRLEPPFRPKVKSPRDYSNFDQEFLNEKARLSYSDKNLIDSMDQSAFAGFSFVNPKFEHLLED
T2 sequence (P24723 whole entry): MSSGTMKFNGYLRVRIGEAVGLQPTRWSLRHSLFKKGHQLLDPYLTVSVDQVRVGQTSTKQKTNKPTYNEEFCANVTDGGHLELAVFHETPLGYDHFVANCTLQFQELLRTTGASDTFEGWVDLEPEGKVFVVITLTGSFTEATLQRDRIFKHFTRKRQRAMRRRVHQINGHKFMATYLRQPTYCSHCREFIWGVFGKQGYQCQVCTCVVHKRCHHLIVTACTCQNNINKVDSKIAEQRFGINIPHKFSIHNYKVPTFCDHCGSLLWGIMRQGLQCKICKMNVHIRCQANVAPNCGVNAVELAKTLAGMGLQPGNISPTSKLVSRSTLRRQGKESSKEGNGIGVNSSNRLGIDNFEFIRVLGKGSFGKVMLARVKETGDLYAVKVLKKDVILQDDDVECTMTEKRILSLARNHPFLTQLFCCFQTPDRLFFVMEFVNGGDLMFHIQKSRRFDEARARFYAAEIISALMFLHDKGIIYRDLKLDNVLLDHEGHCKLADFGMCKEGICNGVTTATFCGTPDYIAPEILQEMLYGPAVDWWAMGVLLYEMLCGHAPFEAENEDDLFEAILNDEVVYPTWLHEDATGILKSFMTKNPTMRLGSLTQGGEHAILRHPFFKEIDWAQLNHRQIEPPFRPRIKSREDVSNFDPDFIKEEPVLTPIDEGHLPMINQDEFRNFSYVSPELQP
T4 sequence (P05771 whole entry): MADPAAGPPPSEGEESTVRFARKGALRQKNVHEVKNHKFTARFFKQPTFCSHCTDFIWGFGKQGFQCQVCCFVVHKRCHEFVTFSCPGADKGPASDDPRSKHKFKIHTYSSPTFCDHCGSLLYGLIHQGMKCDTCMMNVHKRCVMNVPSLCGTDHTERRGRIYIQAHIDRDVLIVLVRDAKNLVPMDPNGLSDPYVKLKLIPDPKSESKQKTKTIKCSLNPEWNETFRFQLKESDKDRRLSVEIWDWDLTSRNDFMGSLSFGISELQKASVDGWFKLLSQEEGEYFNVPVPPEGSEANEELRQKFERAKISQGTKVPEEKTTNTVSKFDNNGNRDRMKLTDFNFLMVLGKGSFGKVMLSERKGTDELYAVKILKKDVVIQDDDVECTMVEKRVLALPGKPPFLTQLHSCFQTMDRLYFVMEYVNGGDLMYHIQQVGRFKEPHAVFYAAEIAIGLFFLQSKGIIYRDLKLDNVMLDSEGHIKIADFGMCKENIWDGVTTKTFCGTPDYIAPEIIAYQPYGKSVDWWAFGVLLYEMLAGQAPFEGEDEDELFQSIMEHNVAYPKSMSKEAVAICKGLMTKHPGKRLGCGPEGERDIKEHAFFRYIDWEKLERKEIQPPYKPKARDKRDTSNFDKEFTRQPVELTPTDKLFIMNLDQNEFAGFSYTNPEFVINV

Turning to `O=C(N[C@@H]1CNCC1OC(=O)c1cc(O)c(C(=O)c2c(O)cccc2C(=O)O)c(O)c1)c1ccc(O)cc1` (stereo not given in full), the concentration for half-maximal inhibition (IC50) in [1] was determined as 70 nM. Besides, the pIC50 is 8.00 in experiment [2]; 8.40 in experiment [3]; 7.92 in experiment [4]; 8.00 in [5]; 7.48 in [6]; 8.30 in experiment [7]. In experiment [8], this molecule gave a pIC50 of 7.66.

On to `O=C(N[C@@H]1c2ccccc2CC1OC(=O)c1cc(O)c(C(=O)c2c(O)cccc2C(=O)O)c(O)c1)c1ccc(O)cc1` (mixture of isomers), for which the IC50 in experiment [1] worked out at 50000 nM. Besides, the pIC50 in [2] was 6.51; in experiment [3] it was over 8.00; in [4] it was 6.80; in experiment [5], 6.70; in experiment [6] it was 6.77; in experiment [7] it was 7.52. Also, the pIC50 in experiment [8] was 6.80.

Turning to `O=C(N[C@@H]1c2ccccc2C[C@H]1OC(=O)c1cc(O)c(C(=O)c2c(O)cccc2C(=O)O)c(O)c1)c1ccc(O)cc1`, the pIC50 in experiment [2] was under 4.30; in experiment [3], 4.46; in experiment [4], 4.49; in [5] it was under 4.30; in experiment [6], 4.41; in experiment [7] it was 4.49. The molecule also had a pIC50 in [8] of under 4.30.

Regarding `O=C(N[C@@H]1CNCCCC1OC(=O)c1cc(O)c(C(=O)c2c(O)cccc2C(=O)O)c(O)c1)c1ccc(O)cc1` (stereo not given in full), the pIC50 in experiment [9] is 8.00; in experiment [10] it was 8.40; in experiment [11] it was 8.00; in experiment [8], 7.52; in experiment [12], 8.52; in experiment [13], 8.00.

As for `O=C(N[C@@H]1Cc2ccccc2C1OC(=O)c1cc(O)c(C(=O)c2c(O)cccc2C(=O)O)c(O)c1)c1ccc(O)cc1` (mixture of isomers), the pIC50 in [2] was 6.32; in experiment [3], over 7.60; in experiment [4], over 7.52; in experiment [5], over 7.54; in experiment [6] it was over 7.60; in [7] it was over 7.60. The molecule also gave a negative logarithm of the IC50 (pIC50) in experiment [8] of 7.15.

In the case of `O=C(N[C@H]1CNCCCC1OC(=O)c1cc(O)c(C(=O)c2c(O)cccc2C(=O)O)c(O)c1)c1ccc(O)cc1` (stereo not given in full), the pIC50 was 6.06 in experiment [9]; 6.38 in experiment [10]; 6.40 in experiment [11]; 5.52 in [8]; 6.59 in experiment [12]; 6.30 in [13].

Take `O=C(N[C@H]1c2ccccc2CC1OC(=O)c1cc(O)c(C(=O)c2c(O)cccc2C(=O)O)c(O)c1)c1ccc(O)cc1` (mixture of isomers): the IC50 in [1] was over 100000 nM. In addition, the pIC50 is 4.60 in experiment [2]; 4.47 in experiment [4]; 4.43 in experiment [5]; 4.43 in [6]; 4.68 in experiment [7]; under 4.30 in experiment [8].

As to `O=C(N[C@@H]1CCCC1OC(=O)c1cc(O)c(C(=O)c2c(O)cccc2C(=O)O)c(O)c1)c1ccc(O)cc1` (stereo not given in full), the pIC50 in experiment [2] was 7.30; in experiment [3], 9.22; in [4], 8.00; in experiment [5], 7.40; in experiment [6] it was 7.30; in [7], 9.05. The molecule further gave a pIC50 in experiment [8] of 7.40.

Turning to `O=C(NC1CNCCCC1OC(=O)c1cc(O)c(C(=O)c2c(O)cccc2C(=O)O)c(O)c1)c1ccc(O)cc1` (racemic), the pIC50 was 6.59 in experiment [9]; 7.30 in experiment [10]; 6.85 in [11]; 6.43 in [8]; over 7.00 in experiment [12]; 7.10 in experiment [13].

`O=C(N[C@@H]1c2ccccc2C[C@@H]1OC(=O)c1cc(O)c(C(=O)c2c(O)cccc2C(=O)O)c(O)c1)c1ccc(O)cc1`: the concentration for half-maximal inhibition (IC50) in [1] was 50000 nM. For the same molecule, the pIC50 in [2] was 5.72; in [3], over 7.30; in [4], 7.30; in experiment [5] it was 7.22; in experiment [6], 7.30; in experiment [7] it was 7.30. This molecule had a pIC50 in [8] of 6.54.

Values taken from ChEMBL document CHEMBL1129020, “Synthesis and protein kinase C inhibitory activities of indane analogs of balanol” (Bioorg Med Chem Lett, 1996).
